For assay [1], the system named is SK-BR-3 cells (HER2 overexpressing cell line). Kind of assay: SK-BR-3 cell proliferation inhibitory activity (CellTiter-Glo, 120 hours). The format is cell-based. The following applies: Homo sapiens. As for the experimental part: (§1) To evaluate the cell proliferation inhibitory activity of the compound according to the present invention on HER2 and EGFR kinases, the following method was performed using HER2 overexpressing cell lines (SK-BR-3, BT-474, and N-87) and EGFR expressing cell line (HaCaT).
(§2) McCOY'S 5A supplemented with 10% FBS was used for SK-BR-3 cells, RPMI-1640 medium supplemented with 20% FBS was used for BT-474 cancer cells, and RPMI-1640 medium supplemented with 10% FBS was used for N-87 cancer cells. DMEM supplemented with 10% FBS was used for HaCaT cells.
(§3) For SK-BR-3 cells, 5000 cells were aliquoted into each well of a white clear bottom 96 well plate (Corning) 48 hours before treatment with the compounds of Examples. For BT-474 cells, 5000 cells were aliquoted into each well of a white clear bottom 96 well plate (Corning) 48 hours before treatment with the compounds of Examples. For N-87 cells, 5000 cells were aliquoted into each well of a white clear bottom 96 well plate (Corning) 24 hours before treatment with the compounds of Examples. For HaCaT cells, 3000 cells were aliquoted into each well of a white clear bottom 96 well plate (Corning) 24 hours before treatment with the compounds of Examples. For SK-BR-3 cells and BT-474 cells, the compounds of Examples were diluted in dimethyl sulfoxide (three-fold dilution, a total of 11 concentrations) and injected each in an amount of 1 μl to a final concentration of 0.2 nM to 10 μM. For N-87 cells, the compounds of Examples were diluted in dimethyl sulfoxide (five-fold dilution, a total of 11 concentrations) and injected each in an amount of 0.5 μl to a final concentration of […] to 5 μM. For HaCaT cells, the compounds of Examples were diluted in dimethyl sulfoxide (three-fold dilution, a total of 11 concentrations) and injected each in an amount of 0.5 μl to a final concentration of 0.8 nM to 45 μM. For the measurement of living cells, the cells were stored at room temperature for 10 minutes using CellTiter-Glo cell viability reagent (Promega) after a certain period of time (SK-BR-3: 120 hours, BT-474: 120 hours, N-87: 72 hours, and HaCaT: 72 hours) post treatment with the compounds of Examples, and the luminescence intensity thereof was measured using a reader (SynergyNeo, Biotek). Each test was repeated three times.
(§4) The result values were calculated as a cell growth rate (%) compared to those of the control group. A graph was created using the GraphPad Prism version 5.0 program, and GI50 values were calculated.
A general note: In ATP-based viability assays light output follows the ATP content of the culture.

The test system of assay [2] is HaCaT cells (EGFR expressing cell line). Kind of assay: HaCaT cell proliferation inhibitory activity (CellTiter-Glo, 72 hours). Format: cell-based. The following applies: Homo sapiens. As for the experimental part:
as §1, §2, §3, §4

As to `C=CC(=O)N1CCC(Nc2cc3c(Nc4cc(-c5ccco5)ccc4OC)ncnc3cc2OCCCOC)CC1` [Example 274, 1-(4-((4-((5-(furan-2-yl)-2-methoxyphenyl)amino)-7-(3-methoxypropoxy)quinazolin-6-yl)amino)piperidin-1-yl)prop-2-en-1-one], the GI50 in assay [1] and in assay [2] was at most 0.15 µM each time.

As to `C=CC(=O)N1CC(Oc2cc3c(Nc4cc(-c5cccc(F)c5C)ccc4OC)ncnc3cc2OC)C1` [Example 23, 1-(3-((4-((3′-fluoro-4-methoxy-2′-methyl-[1,1′-biphenyl]-3-yl)amino)-7-methoxy-quinazolin-6-yl)oxy)azetidin-1-yl)prop-2-en-1-one], the GI50 in assay [1] was 0.15 to 1 µM; in assay [2], at most 0.15 µM.

On to `C=CC(=O)N1CC(Oc2cc3c(Nc4cc(-c5cccn6ccnc56)ccc4OC)ncnc3cc2OC)C1` [Example 35, 1-(3-((4-((5-(imidazo[1,2-a]pyridin-8-yl)-2-methoxyphenyl)amino)-7-methoxy-quinazolin-6-yl)oxy)azetidin-1-yl)prop-2-en-1-one], for which the values for the GI50 in assay [1] and in assay [2] were at most 0.15 µM and 0.15 to 1 µM, respectively.

For the compound `C=CC(=O)N1CCC(Oc2cc3c(Nc4cc(-c5ccco5)ccc4OCC)ncnc3cc2OC)CC1` [Example 118, 1-(4-((4-((2-ethoxy-5-(furan-2-yl)phenyl)amino)-7-methoxy-quinazolin-6-yl)oxy)piperidin-1-yl)prop-2-en-1-one], the GI50 in assay [1] and in assay [2] was at most 0.15 µM each time.

Regarding `C=CC(=O)N1CC2CC1CC2Oc1cc2c(Nc3cc(-c4ccco4)ccc3OC)ncnc2cc1OC` (stereo not shown) [Example 115, 1-(5-((4-((5-(furan-2-yl)-2-methoxyphenyl)amino)-7-methoxy-quinazolin-6-yl)oxy)-2-azabicyclo[2. 2.1]heptan-2-yl)prop-2-en-1-one], the values for the GI50 in assay [1] and in assay [2] were 0.15 to 1 µM and at most 0.15 µM, respectively.

As for `C=CC(=O)N1CC(Oc2cc3c(Nc4cc(-c5cccc(F)c5F)ccc4OC)ncnc3cc2OC)C1` [Example 19, 1-(3-((4-((2′,3′-difluoro-4-methoxy-[1,1′-biphenyl]-3-yl)amino)-7-methoxy-quinazolin-6-yl)oxy)azetidin-1-yl) prop-2-en-1-one], the GI50 in assay [1] and in assay [2] was at most 0.15 µM throughout.

As to `C=CC(=O)N1CCC(Oc2cc3c(Nc4cc(-c5cc(C)cs5)ccc4OC)ncnc3cc2OC)CC1` [Example 83, 1-(4-((7-methoxy-4-((2-methoxy-5-(4-methylthiophen-2-yl)phenyl)amino)quinazolin-6-yl)oxy)piperidin-1-yl)prop-2-en-1-one], the GI50 in assay [1] and in assay [2] was 0.15 to 1 µM in each case.

Consider `C=CC(=O)N1CCC(Oc2cc3c(Nc4cc(-c5ccco5)ccc4OC4COC4)ncnc3cc2OC)CC1` [Example 255, 1-(4-((4-((5-(furan-2-yl)-2-(oxetan-3-yloxy)phenyl)amino)-7-methoxyquinazolin-6-yl)oxy)piperidin-1-yl)prop-2-en-1-one], for which the GI50 in assay [1] and in assay [2] was at most 0.15 µM throughout.

Turning to `C=CC(=O)N1CCC(Oc2cc3c(Nc4cc(-c5ccco5)ccc4OC)ncnc3cc2OC)C(C)C1` (stereo not shown) [Example 148, 1-(4-((4-((5-(furan-2-yl)-2-methoxyphenyl)amino)-7-methoxy-quinazolin-6-yl)oxy)-3-methylpiperidin-1-yl)prop-2-en-1-one], the GI50 in assay [1] and in assay [2] was at most 0.15 µM each time.

For the compound `C=CC(=O)Nc1cc2c(Nc3cc(-c4ccc5occc5c4)ccc3OC)ncnc2cc1OC` [Example 288, N-(4-((5-(benzofuran-5-yl)-2-methoxyphenyl)amino)-7-methoxyquinazolin-6-yl)acrylamide], the GI50 in assay [1] was 0.15 to 1 µM; in assay [2] it was above 1 µM.

In the case of `C=CC(=O)N1CC(Oc2cc3c(Nc4cc(-c5ccn6ncnc6c5)ccc4OC4CCN(C)C4)ncnc3cc2OC)C1` (stereo not shown) [Example 242], the GI50 was 0.15 to 1 µM in assay [1] and at most 0.15 µM in assay [2].

As usually defined, the GI50 is the concentration giving 50% growth inhibition.

(Values after patent US20240246940A1, “HETEROARYL DERIVATIVE COMPOUND AND USE THEREOF” (VORONOI INC., priority 2021, published 2024).)
